Measurements: the CheMixHub ionic liquid set
± gives the uncertainty stated by the source.

Experiment: xn = mol fraction of the nth substance listed

CCCC[N+]1(C)CCCC1.O=S(=O)([O-])C(F)(F)F + O
100 kPa
Settings	electrical conductivity [S/m]	viscosity [mPa·s]
288.15 K, x2 = 0.0597	0.147 ± 0.003	241.7 ± 6.9
288.15 K, x2 = 0.3197	0.297 ± 0.006	98.4 ± 2.2
288.15 K, x2 = 0.3766	0.344 ± 0.007	81.5 ± 1.7
288.15 K, x2 = 0.7673	1.04 ± 0.021	18.66 ± 0.38
293.15 K, x2 = 0.3197	0.368 ± 0.007	76.9 ± 1.6
293.15 K, x2 = 0.8612	1.72 ± 0.034	8.54 ± 0.17
298.15 K, x2 = 0.0597	0.238 ± 0.005	138.8 ± 3.4
298.15 K, x2 = 0.3766	0.521 ± 0.01	51.2 ± 1
298.15 K, x2 = 0.6794	1.15 ± 0.023	18.33 ± 0.37
298.15 K, x2 = 0.7673	1.51 ± 0.03	12.54 ± 0.26
298.15 K, x2 = 0.95	2.4 ± 0.048	2.88 ± 0.06
303.15 K, x2 = 0.3766	0.623 ± 0.013	41.65 ± 0.85
303.15 K, x2 = 0.95	2.77 ± 0.055	2.49 ± 0.05
308.15 K, x2 = 0.1203	0.415 ± 0.008	72.5 ± 1.5
308.15 K, x2 = 0.3766	0.736 ± 0.015	34.31 ± 0.7
313.15 K, x2 = 0.1956	0.581 ± 0.012	47.98 ± 0.99
313.15 K, x2 = 0.5819	1.42 ± 0.028	15.25 ± 0.31
318.15 K, x2 = 0.1203	0.586 ± 0.012	48.5 ± 1
318.15 K, x2 = 0.3197	0.89 ± 0.018	28.23 ± 0.58
323.15 K, x2 = 0.0597	0.612 ± 0.012	46.94 ± 0.98
323.15 K, x2 = 0.1956	0.795 ± 0.016	33.42 ± 0.69
323.15 K, x2 = 0.5819	1.87 ± 0.037	11.25 ± 0.23
323.15 K, x2 = 0.6794	2.43 ± 0.049	8.12 ± 0.17
323.15 K, x2 = 0.95	4.45 ± 0.089	1.52 ± 0.03
328.15 K, x2 = 0.3766	1.31 ± 0.026	17.72 ± 0.36
333.15 K, x2 = 0.5819	2.41 ± 0.048	8.59 ± 0.18

O=S(=O)([N-]S(=O)(=O)C(F)(F)F)C(F)(F)F.[Li+] + COC(=O)OC + CCC1COC(=O)O1
Settings	viscosity [mPa·s]
298.15 K, 100 kPa, x1 = 0.333, x2 = 0.667	53.7 ± 1.6

[N-]=C=S.[NH4+] + CC[n+]1ccn(C)c1.N#C[S-]
100 kPa
Settings	electrical conductivity [S/m]	viscosity [mPa·s]
313.15 K, x1 = 0.039	3.12 ± 0.13	16.11 ± 0.76
318.15 K, x1 = 0.039	–	14.28 ± 0.67
318.15 K, x1 = 0.1395	3.28 ± 0.13	16.71 ± 0.77
323.15 K, x1 = 0.1395	3.71 ± 0.15	14.61 ± 0.68
328.15 K, x1 = 0.039	–	11.19 ± 0.53
333.15 K, x1 = 0.099	–	10.92 ± 0.51
343.15 K, x1 = 0.1395	–	9.2 ± 0.43
348.15 K, x1 = 0.099	–	8.08 ± 0.38
353.15 K, x1 = 0.099	–	7.28 ± 0.34
353.15 K, x1 = 0.1395	–	7.48 ± 0.35

CC[N+]1(C)CCCC1.[Br-] + OC[C@H]1O[C@@H]2O[C@H]3[C@H](O)[C@@H](O)[C@@H](O[C@H]4[C@H](O)[C@@H](O)[C@@H](O[C@H]5[C@H](O)[C@@H](O)[C@@H](O[C@H]6[C@H](O)[C@@H](O)[C@@H](O[C@H]7[C@H](O)[C@@H](O)[C@@H](O[C@H]8[C@H](O)[C@@H](O)[C@@H](O[C@H]1[C@H](O)[C@H]2O)O[C@@H]8CO)O[C@@H]7CO)O[C@@H]6CO)O[C@@H]5CO)O[C@@H]4CO)O[C@@H]3CO + O
298.15 K, 100 kPa
Settings	viscosity [mPa·s]
x2 = 1.587e-05, x1 = 0.001261	1.38 ± 0.03
x2 = 1.587e-05, x1 = 0.001531	1.4 ± 0.03
x2 = 1.588e-05, x1 = 0.0009911	1.37 ± 0.03
x2 = 4.77e-05, x1 = 0.001534	1.45 ± 0.03
x2 = 4.771e-05, x1 = 0.001264	1.42 ± 0.03
x2 = 4.772e-05, x1 = 0.0009931	1.39 ± 0.03

CCCC[N+]1(C)CCCC1.N#C[S-] + O
101 kPa
Settings	viscosity [mPa·s]
298.15 K, x2 = 0.2203	68.6 ± 5.8
298.15 K, x2 = 0.5252	28.9 ± 1.8
298.15 K, x2 = 0.783	10.04 ± 0.63
298.15 K, x2 = 0.8623	5.9 ± 0.37
308.15 K, x2 = 0.5252	19.9 ± 1.2
308.15 K, x2 = 0.6634	12.37 ± 0.77
308.15 K, x2 = 0.8623	4.31 ± 0.27
308.15 K, x2 = 0.9657	1.36 ± 0.09
318.15 K, x2 = 0.2203	31.6 ± 2
318.15 K, x2 = 0.8623	3.23 ± 0.2
318.15 K, x2 = 0.9657	1.1 ± 0.07
328.15 K, x2 = 0.0853	28.9 ± 1.8
328.15 K, x2 = 0.783	4.19 ± 0.26
338.15 K, x2 = 0	25.3 ± 1.6
338.15 K, x2 = 0.2203	17.3 ± 1.1
338.15 K, x2 = 0.783	3.27 ± 0.2
338.15 K, x2 = 0.9657	0.79 ± 0.051
348.15 K, x2 = 0.2203	13.32 ± 0.83
348.15 K, x2 = 0.6634	4.42 ± 0.28
348.15 K, x2 = 0.9657	0.69 ± 0.044

CCCCn1cc[n+](C)c1C.O=S(=O)([N-]S(=O)(=O)C(F)(F)F)C(F)(F)F + CCCC[n+]1ccn(C)c1C.F[B-](F)(F)F
Settings	electrical conductivity [S/m]
358.15 K, 100 kPa, x1 = 1	1.71 ± 0.1

OC1OC[C@@H](O)[C@H](O)[C@H]1O (stereo not given in full) + CCCCCCCCCCCCCCCC[N+](C)(C)C.[Br-] + O
viscosity [mPa·s], 100 kPa
Settings	298.15 K	308.15 K	318.15 K
x2 = 7.19e-06, x1 = 0.001926	0.934 ± 0.06	0.772 ± 0.06	0.642 ± 0.06
x2 = 7.19e-06, x1 = 0.002323	0.941 ± 0.06	0.779 ± 0.06	0.647 ± 0.06
x2 = 7.19e-06, x1 = 0.002648	0.948 ± 0.06	0.784 ± 0.061	0.651 ± 0.06
x2 = 7.2e-06, x1 = 0.0009003	0.914 ± 0.06	0.756 ± 0.06	0.629 ± 0.06
x2 = 7.2e-06, x1 = 0.001314	0.922 ± 0.06	0.763 ± 0.06	0.634 ± 0.06
x2 = 7.2e-06, x1 = 0.001634	0.928 ± 0.06	0.768 ± 0.06	0.638 ± 0.06
x2 = 1.438e-05, x1 = 0.002366	0.948 ± 0.06	0.784 ± 0.06	0.651 ± 0.06
x2 = 1.438e-05, x1 = 0.002756	0.957 ± 0.06	0.791 ± 0.061	0.656 ± 0.06
x2 = 1.439e-05, x1 = 0.001528	0.931 ± 0.06	0.77 ± 0.06	0.639 ± 0.06
x2 = 1.439e-05, x1 = 0.001964	0.94 ± 0.06	0.777 ± 0.06	0.645 ± 0.06
x2 = 1.44e-05, x1 = 0.0009094	0.918 ± 0.06	0.759 ± 0.06	0.63 ± 0.06
x2 = 1.44e-05, x1 = 0.001186	0.923 ± 0.06	0.764 ± 0.06	0.634 ± 0.06
x2 = 2.157e-05, x1 = 0.002446	0.955 ± 0.06	0.79 ± 0.06	0.654 ± 0.06
x2 = 2.157e-05, x1 = 0.002688	0.961 ± 0.061	0.795 ± 0.061	0.658 ± 0.06
x2 = 2.158e-05, x1 = 0.00199	0.945 ± 0.06	0.782 ± 0.06	0.647 ± 0.06
x2 = 2.159e-05, x1 = 0.001338	0.93 ± 0.06	0.77 ± 0.06	0.637 ± 0.06
x2 = 2.159e-05, x1 = 0.001717	0.939 ± 0.06	0.777 ± 0.06	0.643 ± 0.06
x2 = 2.16e-05, x1 = 0.0009887	0.923 ± 0.06	0.763 ± 0.06	0.632 ± 0.06

CCCC[N+](C)(C)C[c-]1cccc1.O=S(=O)([N-]S(=O)(=O)C(F)(F)F)C(F)(F)F.[Fe+2].c1cc[cH-]c1 + CC#N
100 kPa
Settings	electrical conductivity [S/m]
298 K, x1 = 0.03	2.17 ± 0.044
303 K, x1 = 0.1	1.88 ± 0.038
308 K, x1 = 0.08	2.2 ± 0.044
308 K, x1 = 0.2	0.945 ± 0.019
313 K, x1 = 0.07	2.47 ± 0.05
318 K, x1 = 0.01	1.58 ± 0.032
318 K, x1 = 0.06	2.67 ± 0.054
318 K, x1 = 0.08	2.47 ± 0.049
318 K, x1 = 0.15	1.58 ± 0.032
318 K, x1 = 0.2	1.14 ± 0.023
323 K, x1 = 0.01	1.64 ± 0.033
323 K, x1 = 0.2	1.24 ± 0.025
328 K, x1 = 0.05	2.95 ± 0.059
328 K, x1 = 0.12	2.19 ± 0.044
333 K, x1 = 0.01	1.75 ± 0.035
333 K, x1 = 0.02	2.5 ± 0.05
333 K, x1 = 0.03	2.92 ± 0.058
333 K, x1 = 0.07	3 ± 0.06
338 K, x1 = 0.05	3.2 ± 0.064
338 K, x1 = 0.07	3.15 ± 0.063
343 K, x1 = 0.07	3.28 ± 0.066
343 K, x1 = 0.08	3.15 ± 0.063
343 K, x1 = 0.15	2.19 ± 0.044
348 K, x1 = 0.02	2.76 ± 0.055
348 K, x1 = 0.07	3.42 ± 0.069
348 K, x1 = 0.08	3.3 ± 0.066
348 K, x1 = 0.12	2.74 ± 0.055

CCCCCCCCCC[n+]1ccn(C)c1.[Cl-] + CC(C)O
298.15 K, 101.3 kPa, frequency 5e-05 MHz
Settings	electrical conductivity [S/m]
x1 = 0.01207	0.0497 ± 0.002
x1 = 0.02515	0.0872 ± 0.0038
x1 = 0.03936	0.126 ± 0.006
x1 = 0.05486	0.17 ± 0.01
x1 = 0.07184	0.218 ± 0.01
x1 = 0.09051	0.266 ± 0.012
x1 = 0.1111	0.308 ± 0.013
x1 = 0.134	0.337 ± 0.014
x1 = 0.1597	0.348 ± 0.014
x1 = 0.1884	0.343 ± 0.014
x1 = 0.2211	0.326 ± 0.013
x1 = 0.2583	0.312 ± 0.012
x1 = 0.3013	0.325 ± 0.014
x1 = 0.3514	0.399 ± 0.022
x1 = 0.4106	0.584 ± 0.036
x1 = 0.4815	0.944 ± 0.038
